Data as given in the NIST ThermoML archive (doi:10.1021/acs.jced.8b00591).

Test: xn = mol fraction of the nth substance listed
Conditions: 101.3 kPa, Liquid; for viscosity: Falling or rolling sphere viscometry; for mass density: Vibrating tube method

CCn1cc[n+](C)c1.O=S(=O)([N-]S(=O)(=O)C(F)(F)F)C(F)(F)F + CCOC(=O)OCC
Conditions | mass density [kg/m3] | viscosity [mPa·s]
288.15 K, x1 = 0.0991 | 1090.45 | 1.938
288.15 K, x1 = 0.1982 | 1179.3 | 3.368
288.15 K, x1 = 0.3024 | 1254.64 | 5.628
288.15 K, x1 = 0.3979 | 1312.21 | 8.533
288.15 K, x1 = 0.4982 | 1362.22 | 12.38
288.15 K, x1 = 0.5963 | 1404.91 | 17.23
288.15 K, x1 = 0.6992 | 1442.62 | 24.14
288.15 K, x1 = 0.7987 | 1475.05 | 31.13
288.15 K, x1 = 0.9 | 1503.75 | 39.07
288.15 K, x1 = 1 | 1528.55 | 49.41
293.15 K, x1 = 0.0991 | 1085.01 | 1.769
293.15 K, x1 = 0.1982 | 1173.95 | 3.032
293.15 K, x1 = 0.3024 | 1249.39 | 4.987
293.15 K, x1 = 0.3979 | 1306.99 | 7.45
293.15 K, x1 = 0.4982 | 1357.04 | 10.66
293.15 K, x1 = 0.5963 | 1399.78 | 14.65
293.15 K, x1 = 0.6992 | 1437.5 | 20.32
293.15 K, x1 = 0.7987 | 1469.95 | 25.96
293.15 K, x1 = 0.9 | 1498.66 | 32.29
293.15 K, x1 = 1 | 1523.47 | 40.36
298.15 K, x1 = 0.0991 | 1079.54 | 1.623
298.15 K, x1 = 0.1982 | 1168.6 | 2.746
298.15 K, x1 = 0.3024 | 1244.11 | 4.452
298.15 K, x1 = 0.3979 | 1301.78 | 6.552
298.15 K, x1 = 0.4982 | 1351.87 | 9.269
298.15 K, x1 = 0.5963 | 1394.64 | 12.59
298.15 K, x1 = 0.6992 | 1432.38 | 17.65
298.15 K, x1 = 0.7987 | 1464.86 | 21.91
298.15 K, x1 = 0.9 | 1493.58 | 27.04
298.15 K, x1 = 1 | 1518.39 | 33.52
303.15 K, x1 = 0.0991 | 1074.07 | 1.495
303.15 K, x1 = 0.1982 | 1163.23 | 2.498
303.15 K, x1 = 0.3024 | 1238.83 | 3.992
303.15 K, x1 = 0.3979 | 1296.56 | 5.819
303.15 K, x1 = 0.4982 | 1346.7 | 8.127
303.15 K, x1 = 0.5963 | 1389.51 | 10.93
303.15 K, x1 = 0.6992 | 1427.28 | 15.41
303.15 K, x1 = 0.7987 | 1459.77 | 18.79
303.15 K, x1 = 0.9 | 1488.51 | 22.93
303.15 K, x1 = 1 | 1513.34 | 28.35
308.15 K, x1 = 0.0991 | 1068.56 | 1.389
308.15 K, x1 = 0.1982 | 1157.86 | 2.288
308.15 K, x1 = 0.3024 | 1233.56 | 3.607
308.15 K, x1 = 0.3979 | 1291.36 | 5.196
308.15 K, x1 = 0.4982 | 1341.55 | 7.192
308.15 K, x1 = 0.5963 | 1384.4 | 9.572
308.15 K, x1 = 0.6992 | 1422.19 | 13.37
308.15 K, x1 = 0.7987 | 1454.71 | 16.59
308.15 K, x1 = 0.9 | 1483.46 | 19.65
308.15 K, x1 = 1 | 1508.3 | 24.15
313.15 K, x1 = 0.0991 | 1063.05 | 1.29
313.15 K, x1 = 0.1982 | 1152.48 | 2.102
313.15 K, x1 = 0.3024 | 1228.28 | 3.278
313.15 K, x1 = 0.3979 | 1286.15 | 4.672
313.15 K, x1 = 0.4982 | 1336.41 | 6.41
313.15 K, x1 = 0.5963 | 1379.3 | 8.445
313.15 K, x1 = 0.6992 | 1417.12 | 11.6
313.15 K, x1 = 0.7987 | 1449.66 | 14.56
313.15 K, x1 = 0.9 | 1478.42 | 17.36
313.15 K, x1 = 1 | 1503.28 | 20.76
318.15 K, x1 = 0.0991 | 1057.53 | 1.204
318.15 K, x1 = 0.1982 | 1147.11 | 1.939
318.15 K, x1 = 0.3024 | 1223.01 | 2.993
318.15 K, x1 = 0.3979 | 1280.95 | 4.223
318.15 K, x1 = 0.4982 | 1331.27 | 5.749
318.15 K, x1 = 0.5963 | 1374.2 | 7.525
318.15 K, x1 = 0.6992 | 1412.06 | 10.14
318.15 K, x1 = 0.7987 | 1444.62 | 12.72
318.15 K, x1 = 0.9 | 1473.41 | 15.35
318.15 K, x1 = 1 | 1498.27 | 17.9
323.15 K, x1 = 0.0991 | 1051.98 | 1.121
323.15 K, x1 = 0.1982 | 1141.72 | 1.794
323.15 K, x1 = 0.3024 | 1217.74 | 2.746
323.15 K, x1 = 0.3979 | 1275.76 | 3.839
323.15 K, x1 = 0.4982 | 1326.13 | 5.184
323.15 K, x1 = 0.5963 | 1369.11 | 6.739
323.15 K, x1 = 0.6992 | 1407.01 | 8.895
323.15 K, x1 = 0.7987 | 1439.6 | 11.15
323.15 K, x1 = 0.9 | 1468.41 | 13.53
323.15 K, x1 = 1 | 1493.28 | 15.93
328.15 K, x1 = 0.0991 | 1046.42 | 1.049
328.15 K, x1 = 0.1982 | 1136.32 | 1.667
328.15 K, x1 = 0.3024 | 1212.46 | 2.528
328.15 K, x1 = 0.3979 | 1270.58 | 3.509
328.15 K, x1 = 0.4982 | 1321.01 | 4.704
328.15 K, x1 = 0.5963 | 1364.03 | 6.075
328.15 K, x1 = 0.6992 | 1401.98 | 7.875
328.15 K, x1 = 0.7987 | 1434.59 | 9.813
328.15 K, x1 = 0.9 | 1463.42 | 11.93
328.15 K, x1 = 1 | 1488.31 | 14.26
